Several values for one entry are separate records, joined by “and”; a condition that tells them apart may be missing. Equal values may be shown once.
Assays:
Format in all cases: cell-based
[1] = molecular target: 320 GPCRs (Homo sapiens, UniProt O95136)
[2] = molecular target: 320 GPCRs (Homo sapiens, UniProt P25090)
[3] = molecular target: 320 GPCRs (Homo sapiens, UniProt Q9NS66)
[4] = molecular target: 320 GPCRs (Homo sapiens, UniProt P18825)
[5] = molecular target: 320 GPCRs (Homo sapiens, UniProt P35348)
[6] = molecular target: 320 GPCRs (Homo sapiens, UniProt P35462)
[7] = molecular target: 320 GPCRs (Homo sapiens, UniProt Q7Z601)
[8] = molecular target: 320 GPCRs (Homo sapiens, UniProt Q9Y653)
[9] = molecular target: 320 GPCRs (Homo sapiens, UniProt Q9NS67)
[10] = molecular target: 320 GPCRs (Homo sapiens, UniProt P13945)
Sequence of 320 GPCRs (Homo sapiens, UniProt P13945) (P13945 whole entry): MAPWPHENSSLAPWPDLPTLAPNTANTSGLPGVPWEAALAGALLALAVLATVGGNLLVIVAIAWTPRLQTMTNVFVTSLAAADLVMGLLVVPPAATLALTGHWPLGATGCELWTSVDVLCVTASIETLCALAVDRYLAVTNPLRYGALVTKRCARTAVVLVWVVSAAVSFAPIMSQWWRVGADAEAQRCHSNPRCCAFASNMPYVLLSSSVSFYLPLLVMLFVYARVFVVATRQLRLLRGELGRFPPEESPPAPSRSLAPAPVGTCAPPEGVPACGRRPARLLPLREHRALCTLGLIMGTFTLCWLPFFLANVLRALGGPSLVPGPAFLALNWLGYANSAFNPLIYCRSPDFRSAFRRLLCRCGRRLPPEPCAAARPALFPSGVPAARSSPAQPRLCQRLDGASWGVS

[11] = molecular target: 320 GPCRs (Homo sapiens, UniProt P49685)
Sequence of 320 GPCRs (Homo sapiens, UniProt P49685) (P49685 whole entry): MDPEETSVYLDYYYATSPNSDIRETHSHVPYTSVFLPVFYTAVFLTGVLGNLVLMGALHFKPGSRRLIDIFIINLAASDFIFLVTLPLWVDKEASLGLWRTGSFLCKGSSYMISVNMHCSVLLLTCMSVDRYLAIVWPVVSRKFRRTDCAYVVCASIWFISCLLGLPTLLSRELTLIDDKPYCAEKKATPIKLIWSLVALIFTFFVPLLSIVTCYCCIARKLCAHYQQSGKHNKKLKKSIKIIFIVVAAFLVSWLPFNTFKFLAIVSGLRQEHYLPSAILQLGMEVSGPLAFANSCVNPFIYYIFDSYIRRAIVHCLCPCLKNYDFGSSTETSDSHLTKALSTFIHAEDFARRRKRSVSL

[12] = molecular target: 320 GPCRs (Homo sapiens, UniProt P43088)
[13] = molecular target: 320 GPCRs (Homo sapiens, UniProt Q969N4)
[14] = molecular target: 320 GPCRs (Homo sapiens, UniProt Q8TDV5)
[15] = molecular target: 320 GPCRs (Homo sapiens, UniProt Q14416)
[16] = molecular target: 320 GPCRs (Homo sapiens, UniProt Q13258)
[17] = molecular target: 320 GPCRs (Homo sapiens, UniProt Q8TDS4)
Sequence of 320 GPCRs (Homo sapiens, UniProt Q8TDS4) (Q8TDS4 whole entry): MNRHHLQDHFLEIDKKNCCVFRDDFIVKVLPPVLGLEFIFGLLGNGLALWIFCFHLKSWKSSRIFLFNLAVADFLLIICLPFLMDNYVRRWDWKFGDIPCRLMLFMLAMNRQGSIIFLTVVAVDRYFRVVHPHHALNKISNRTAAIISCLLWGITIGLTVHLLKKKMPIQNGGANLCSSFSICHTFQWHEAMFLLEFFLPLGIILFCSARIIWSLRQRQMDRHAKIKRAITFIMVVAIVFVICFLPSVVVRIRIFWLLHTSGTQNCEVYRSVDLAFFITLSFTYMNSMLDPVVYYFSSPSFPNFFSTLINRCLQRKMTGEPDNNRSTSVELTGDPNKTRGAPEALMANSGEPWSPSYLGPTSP

[18] = molecular target: 320 GPCRs (Homo sapiens, UniProt Q86SQ4)
[19] = molecular target: 320 GPCRs (Homo sapiens, UniProt Q16602)
Sequence of 320 GPCRs (Homo sapiens, UniProt Q16602) (Q16602 23-461): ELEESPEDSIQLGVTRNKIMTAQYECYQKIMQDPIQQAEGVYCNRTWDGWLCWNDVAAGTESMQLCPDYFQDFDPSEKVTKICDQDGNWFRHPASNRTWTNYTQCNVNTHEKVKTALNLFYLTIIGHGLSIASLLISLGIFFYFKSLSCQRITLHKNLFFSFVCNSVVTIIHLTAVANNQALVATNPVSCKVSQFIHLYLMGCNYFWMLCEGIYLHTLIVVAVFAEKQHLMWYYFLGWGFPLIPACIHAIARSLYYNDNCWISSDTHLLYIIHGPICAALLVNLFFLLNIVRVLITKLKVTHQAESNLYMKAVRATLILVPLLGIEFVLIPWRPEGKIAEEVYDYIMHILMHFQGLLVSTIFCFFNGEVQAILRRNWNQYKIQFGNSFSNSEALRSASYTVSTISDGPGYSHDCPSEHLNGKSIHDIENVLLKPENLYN

[20] = molecular target: 320 GPCRs (Homo sapiens, UniProt Q7Z7M1)
[21] = molecular target: 320 GPCRs (Homo sapiens, UniProt P47775)
[22] = molecular target: 320 GPCRs (Homo sapiens, UniProt Q96G91)
Sequence of 320 GPCRs (Homo sapiens, UniProt Q96G91) (Q96G91 whole entry): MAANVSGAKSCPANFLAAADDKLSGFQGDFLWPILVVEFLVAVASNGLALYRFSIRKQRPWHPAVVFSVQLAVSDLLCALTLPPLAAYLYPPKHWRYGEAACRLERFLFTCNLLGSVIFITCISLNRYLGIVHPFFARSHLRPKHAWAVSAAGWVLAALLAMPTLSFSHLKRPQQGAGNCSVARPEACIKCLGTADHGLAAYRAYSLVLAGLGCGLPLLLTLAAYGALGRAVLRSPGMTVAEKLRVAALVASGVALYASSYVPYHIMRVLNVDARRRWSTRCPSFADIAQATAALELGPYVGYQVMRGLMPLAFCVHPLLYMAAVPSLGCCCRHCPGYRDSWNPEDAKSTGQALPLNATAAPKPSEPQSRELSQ

[23] = molecular target: 320 GPCRs (Homo sapiens, UniProt P43115)
[24] = molecular target: 320 GPCRs (Homo sapiens, UniProt P47901)
[25] = system: 320 GPCRs
[26] = molecular target: 320 GPCRs (Homo sapiens, UniProt P49238)
[27] = molecular target: 320 GPCRs (Homo sapiens, UniProt Q96LB0)
[28] = molecular target: 320 GPCRs (Homo sapiens, UniProt P41146)
Sequence of 320 GPCRs (Homo sapiens, UniProt P41146) (P41146 whole entry): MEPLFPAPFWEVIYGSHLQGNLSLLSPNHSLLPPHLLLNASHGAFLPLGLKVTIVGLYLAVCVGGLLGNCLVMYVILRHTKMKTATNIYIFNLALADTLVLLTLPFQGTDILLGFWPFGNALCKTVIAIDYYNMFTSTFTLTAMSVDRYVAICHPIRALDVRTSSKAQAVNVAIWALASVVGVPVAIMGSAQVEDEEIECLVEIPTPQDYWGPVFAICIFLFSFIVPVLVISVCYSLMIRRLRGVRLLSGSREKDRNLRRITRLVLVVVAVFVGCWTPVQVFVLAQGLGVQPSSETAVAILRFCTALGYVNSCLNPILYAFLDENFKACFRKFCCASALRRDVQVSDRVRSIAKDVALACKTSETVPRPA

[29] = molecular target: 320 GPCRs (Homo sapiens, UniProt P30411)
[30] = molecular target: 320 GPCRs (Homo sapiens, UniProt Q96RI0)
[31] = molecular target: 320 GPCRs (Homo sapiens, UniProt P35410)
[32] = molecular target: 320 GPCRs (Homo sapiens, UniProt P30968)
[33] = molecular target: 320 GPCRs (Homo sapiens, UniProt Q9NPC1)
[34] = molecular target: 320 GPCRs (Homo sapiens, UniProt Q8TDU9)
Sequence of 320 GPCRs (Homo sapiens, UniProt Q8TDU9) (Q8TDU9 whole entry): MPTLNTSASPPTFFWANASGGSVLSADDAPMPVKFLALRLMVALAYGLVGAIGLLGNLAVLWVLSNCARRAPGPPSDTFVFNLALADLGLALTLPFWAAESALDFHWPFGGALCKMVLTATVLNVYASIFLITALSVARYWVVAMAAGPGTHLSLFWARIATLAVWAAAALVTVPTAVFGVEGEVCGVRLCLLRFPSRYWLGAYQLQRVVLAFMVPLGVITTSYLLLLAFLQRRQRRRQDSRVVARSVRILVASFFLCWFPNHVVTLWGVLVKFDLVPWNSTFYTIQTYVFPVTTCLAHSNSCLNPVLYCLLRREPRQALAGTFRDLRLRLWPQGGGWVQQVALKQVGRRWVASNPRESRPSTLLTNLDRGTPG

[35] = molecular target: 320 GPCRs (Homo sapiens, UniProt Q8TDV0)
[36] = molecular target: 320 GPCRs (Homo sapiens, UniProt P47871)
Sequence of 320 GPCRs (Homo sapiens, UniProt P47871) (P47871 26-477): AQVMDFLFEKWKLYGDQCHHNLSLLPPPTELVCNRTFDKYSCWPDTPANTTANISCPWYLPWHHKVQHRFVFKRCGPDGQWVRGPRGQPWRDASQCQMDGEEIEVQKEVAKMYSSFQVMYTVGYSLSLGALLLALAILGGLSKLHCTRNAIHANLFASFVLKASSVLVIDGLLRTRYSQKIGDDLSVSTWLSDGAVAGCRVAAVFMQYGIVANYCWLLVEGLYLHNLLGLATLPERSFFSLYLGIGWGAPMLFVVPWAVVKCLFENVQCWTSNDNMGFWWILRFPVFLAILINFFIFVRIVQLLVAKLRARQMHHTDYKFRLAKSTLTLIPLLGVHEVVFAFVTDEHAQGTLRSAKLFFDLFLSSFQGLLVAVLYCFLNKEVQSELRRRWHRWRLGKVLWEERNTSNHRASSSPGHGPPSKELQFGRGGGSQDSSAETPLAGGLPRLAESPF

[37] = molecular target: 320 GPCRs (Homo sapiens, UniProt P32239)
Sequence of 320 GPCRs (Homo sapiens, UniProt P32239) (P32239 whole entry): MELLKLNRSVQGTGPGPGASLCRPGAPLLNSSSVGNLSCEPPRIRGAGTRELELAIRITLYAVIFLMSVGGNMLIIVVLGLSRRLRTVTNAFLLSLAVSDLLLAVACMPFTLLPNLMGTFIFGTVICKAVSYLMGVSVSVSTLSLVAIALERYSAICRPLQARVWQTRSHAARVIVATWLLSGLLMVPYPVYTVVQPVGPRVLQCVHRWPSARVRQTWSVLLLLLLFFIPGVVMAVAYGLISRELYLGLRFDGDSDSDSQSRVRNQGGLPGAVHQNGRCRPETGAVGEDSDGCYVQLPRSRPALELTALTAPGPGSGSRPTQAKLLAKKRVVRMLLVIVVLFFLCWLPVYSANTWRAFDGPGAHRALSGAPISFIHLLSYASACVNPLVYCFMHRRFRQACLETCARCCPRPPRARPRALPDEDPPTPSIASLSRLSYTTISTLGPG

[38] = molecular target: 320 GPCRs (Homo sapiens, UniProt Q16581)
Sequence of 320 GPCRs (Homo sapiens, UniProt Q16581) (Q16581 whole entry): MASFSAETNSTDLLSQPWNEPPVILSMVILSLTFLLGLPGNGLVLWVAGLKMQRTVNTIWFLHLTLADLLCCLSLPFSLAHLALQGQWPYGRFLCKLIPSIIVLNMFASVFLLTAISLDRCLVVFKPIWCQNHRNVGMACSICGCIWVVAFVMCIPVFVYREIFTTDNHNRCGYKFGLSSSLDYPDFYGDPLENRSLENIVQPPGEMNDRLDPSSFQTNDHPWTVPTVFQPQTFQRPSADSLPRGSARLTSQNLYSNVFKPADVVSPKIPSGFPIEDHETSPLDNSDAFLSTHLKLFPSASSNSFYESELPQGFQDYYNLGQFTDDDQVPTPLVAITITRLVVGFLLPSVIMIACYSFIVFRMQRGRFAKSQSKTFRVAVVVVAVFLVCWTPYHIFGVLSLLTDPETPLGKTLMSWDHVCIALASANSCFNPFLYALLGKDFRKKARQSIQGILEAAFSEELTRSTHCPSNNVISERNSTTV

[39] = molecular target: 320 GPCRs (Homo sapiens, UniProt Q99678)
[40] = molecular target: 320 GPCRs (Homo sapiens, UniProt Q9NQS5)
[41] = molecular target: 320 GPCRs (Homo sapiens, UniProt P37288)
[42] = molecular target: 320 GPCRs (Homo sapiens, UniProt P51684)
Sequence of 320 GPCRs (Homo sapiens, UniProt P51684) (P51684 whole entry): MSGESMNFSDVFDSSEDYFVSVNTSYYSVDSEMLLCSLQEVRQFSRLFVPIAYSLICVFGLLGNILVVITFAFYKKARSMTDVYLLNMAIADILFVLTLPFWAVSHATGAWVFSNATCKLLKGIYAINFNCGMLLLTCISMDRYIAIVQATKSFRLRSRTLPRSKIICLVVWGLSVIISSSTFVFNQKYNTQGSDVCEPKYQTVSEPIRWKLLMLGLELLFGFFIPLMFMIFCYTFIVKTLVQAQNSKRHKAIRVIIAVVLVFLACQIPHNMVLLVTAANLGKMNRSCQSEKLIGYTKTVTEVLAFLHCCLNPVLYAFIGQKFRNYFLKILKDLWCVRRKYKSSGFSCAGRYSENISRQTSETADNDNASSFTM

[43] = molecular target: 320 GPCRs (Homo sapiens, UniProt P43116)
Sequence of 320 GPCRs (Homo sapiens, UniProt P43116) (P43116 whole entry): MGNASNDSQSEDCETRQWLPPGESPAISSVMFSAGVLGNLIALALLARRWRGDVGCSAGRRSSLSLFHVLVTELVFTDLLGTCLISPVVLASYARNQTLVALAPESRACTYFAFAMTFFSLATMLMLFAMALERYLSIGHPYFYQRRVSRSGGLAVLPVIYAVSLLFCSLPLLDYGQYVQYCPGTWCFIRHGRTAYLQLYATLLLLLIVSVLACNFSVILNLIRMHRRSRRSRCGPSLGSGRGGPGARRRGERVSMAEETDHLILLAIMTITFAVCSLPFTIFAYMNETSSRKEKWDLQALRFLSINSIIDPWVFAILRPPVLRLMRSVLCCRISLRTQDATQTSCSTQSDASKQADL

O=C(O)C1CCC2(CC1)CC(Nc1ncnc3[nH]c4c(F)cccc4c13)C2 (stereo not shown) [Compound 74, OC(=O)C1CCC2(CC(C2)NC=3N=CN=C4NC=5C(F)=CC=CC5C34)CC1]
RLU (Fold over Basal) [1]: 0.3 Fold over Basal and 0.2 Fold over Basal
RLU (Fold over Basal) [2]: 1.2 Fold over Basal and 1.5 Fold over Basal and 1.6 Fold over Basal and 0.9 Fold over Basal
RLU (Fold over Basal) [3]: 1.1 Fold over Basal and 1.2 Fold over Basal and 1 Fold over Basal and 0.6 Fold over Basal
RLU (Fold over Basal) [4]: 0.6 Fold over Basal and 0.8 Fold over Basal
RLU (Fold over Basal) [5]: 0.4 Fold over Basal and 0.7 Fold over Basal and 0.8 Fold over Basal
RLU (Fold over Basal) [6]: 0.5 Fold over Basal and 0.6 Fold over Basal
RLU (Fold over Basal) [7]: 0.6 Fold over Basal and 1 Fold over Basal
RLU (Fold over Basal) [8]: 0.9 Fold over Basal and 0.7 Fold over Basal and 0.8 Fold over Basal
RLU (Fold over Basal) [9]: 0.4 Fold over Basal and 0.7 Fold over Basal and 0.8 Fold over Basal and 0.6 Fold over Basal
RLU (Fold over Basal) [10]: 1.4 Fold over Basal and 1.2 Fold over Basal and 1.1 Fold over Basal and 1.3 Fold over Basal
RLU (Fold over Basal) [11]: 0.4 Fold over Basal and 0.5 Fold over Basal and 0.6 Fold over Basal and 0.7 Fold over Basal
RLU (Fold over Basal) [12]: 1.2 Fold over Basal and 1.4 Fold over Basal and 1 Fold over Basal
RLU (Fold over Basal) [13]: 0.7 Fold over Basal and 0.5 Fold over Basal
RLU (Fold over Basal) [14]: 0.5 Fold over Basal and 0.6 Fold over Basal and 0.8 Fold over Basal
RLU (Fold over Basal) [15]: 1 Fold over Basal and 1.1 Fold over Basal and 0.9 Fold over Basal
RLU (Fold over Basal) [16]: 0.7 Fold over Basal and 1 Fold over Basal and 1.1 Fold over Basal
RLU (Fold over Basal) [17]: 1.1 Fold over Basal and 1.6 Fold over Basal and 1.9 Fold over Basal and 1.5 Fold over Basal
RLU (Fold over Basal) [18]: 1 Fold over Basal and 1.1 Fold over Basal and 0.9 Fold over Basal and 1.5 Fold over Basal
RLU (Fold over Basal) [19]: 0.9 Fold over Basal and 1.2 Fold over Basal and 1.4 Fold over Basal and 1.1 Fold over Basal
RLU (Fold over Basal) [20]: 1.3 Fold over Basal and 0.7 Fold over Basal
RLU (Fold over Basal) [21]: 0.6 Fold over Basal and 1 Fold over Basal
RLU (Fold over Basal) [22]: 1 Fold over Basal and 0.7 Fold over Basal and 1.1 Fold over Basal and 1.4 Fold over Basal
RLU (Fold over Basal) [23]: 0.5 Fold over Basal and 0.7 Fold over Basal
RLU (Fold over Basal) [24]: 0.9 Fold over Basal and 1 Fold over Basal and 0.5 Fold over Basal
agonist activity in GPCR panel [25]: no agonist activity
RLU (Fold over Basal) [26]: 1 Fold over Basal
RLU (Fold over Basal) [27]: 1 Fold over Basal and 1.4 Fold over Basal and 0.9 Fold over Basal
RLU (Fold over Basal) [28]: 0.8 Fold over Basal and 0.7 Fold over Basal and 1.3 Fold over Basal and 0.9 Fold over Basal
RLU (Fold over Basal) [29]: 0.4 Fold over Basal and 0.5 Fold over Basal and 0.6 Fold over Basal
RLU (Fold over Basal) [30]: 1 Fold over Basal and 0.7 Fold over Basal and 1.2 Fold over Basal
RLU (Fold over Basal) [31]: 0.7 Fold over Basal and 1 Fold over Basal and 0.9 Fold over Basal and 0.6 Fold over Basal
RLU (Fold over Basal) [32]: 1 Fold over Basal and 0.5 Fold over Basal and 0.6 Fold over Basal
RLU (Fold over Basal) [33]: 0.9 Fold over Basal and 1.5 Fold over Basal and 0.8 Fold over Basal and 1.3 Fold over Basal
RLU (Fold over Basal) [34]: 1.1 Fold over Basal and 0.6 Fold over Basal and 0.7 Fold over Basal
RLU (Fold over Basal) [35]: 0.9 Fold over Basal and 0.8 Fold over Basal and 1.1 Fold over Basal
RLU (Fold over Basal) [36]: 1 Fold over Basal and 0.5 Fold over Basal and 0.8 Fold over Basal
RLU (Fold over Basal) [37]: 0.9 Fold over Basal and 1.1 Fold over Basal and 0.8 Fold over Basal
RLU (Fold over Basal) [38]: 1.2 Fold over Basal and 1.3 Fold over Basal and 0.8 Fold over Basal and 1 Fold over Basal
RLU (Fold over Basal) [39]: 0.9 Fold over Basal and 1.6 Fold over Basal and 0.8 Fold over Basal
RLU (Fold over Basal) [40]: 1 Fold over Basal and 0.8 Fold over Basal and 1.1 Fold over Basal
RLU (Fold over Basal) [41]: 0.7 Fold over Basal and 1.1 Fold over Basal
RLU (Fold over Basal) [42]: 0.7 Fold over Basal and 1 Fold over Basal and 0.9 Fold over Basal
RLU (Fold over Basal) [43]: 1.1 Fold over Basal and 1.2 Fold over Basal and 2 Fold over Basal and 1.3 Fold over Basal

From publication PMC10700596 (Nature Communications, 2023)
